In assay [1] the test system is Pectobacterium carotovorum subsp. carotovorum VKM B-1247. Nature of the assay: Antimicrobial activity assay against bacteria, growth inhibition in microtiter plates. The class given is cell-based. As to conditions: modified YPD-P medium, peptide 0.5–300 µM, 30 °C, 24 h, absorbance 594 nm, triplicate, mean ± SD. The text has this: (§1) The IC50 values are presented as mean ± standard deviations.

Assay [2] has as its system Botrytis cinerea VKM F-4549. In kind it is cell-based. As to conditions: spores in half-strength potato dextrose broth, peptide 5–300 µM, 48 h, absorbance 595 nm, triplicate, mean ± SD; read-out: IC50 against B. cinerea. As for the experimental part: (§2) The inhibitory activity of peptides on spore germination and growth of fungi was tested against nine fungal strains from the VKM: Fusarium culmorum VKM F-2303, F. oxysporum VKM F-137, F. solani VKM F-142, F. verticillioides VKM F-670, Aspergillus unguis VKM F-1754, Bipolaris sorokiniana VKM F-4006, Botrytis cinerea VKM F-4549, Rhizoctonia solani VKM F-895, and Penicillium gladioli VKM F-2088. The fungi were cultivated on potato dextrose agar at 25 °C for 7–8 days, while B. sorokiniana and B. cinerea were grown for 10–12 days. Spores were obtained by washing from the surface of the mycelia with sterile distilled water and filtered through a sterile filter. The filtrate was centrifuged at 6000 rpm for 15 min. The precipitate was washed three times with sterile distilled water and centrifuged at 10,000 rpm for 2 min. A total of 1 mL of sterile aqueous 20% glycerol solution was added to the spores, and spores were stored at −20 °C.
(§3) The antifungal effect of peptides was determined in microtiter plates by measuring the absorbance of the spore suspension in the presence of the peptide relative to the control. In the wells of a plate, 90 µL of spore suspension in half-strength potato dextrose broth at a concentration of 2000–3000 spores in 100 µL was mixed with 10 µL of aqueous solutions of peptides to obtain final concentrations of 5–300 µM. Each experiment was carried out in triplicate. The concentration of spores in the suspension was determined in a Goryaev chamber. The absorbance was recorded at 595 nm on a FilterMax F5 Multi-Mode Microplate Reader (Molecular Devices, San Jose, CA, USA) after 48 h of incubation. The antimicrobial activity was expressed in IC50 values.

Assay [3] deals with Aspergillus unguis VKM F-1754. In kind it is cell-based. As to conditions: spores in half-strength potato dextrose broth, peptide 5–300 µM, 48 h, absorbance 595 nm, triplicate, mean ± SD; read-out: IC50 against A. unguis. As for the experimental part:
as §2, §3

For assay [4], the system named is Penicillium gladioli VKM F-2088. In kind it is cell-based. To be noted: spores in half-strength potato dextrose broth, peptide 5–300 µM, 48 h, absorbance 595 nm, triplicate, mean ± SD; read-out: IC50 against P. gladioli. Here is the method: as §2, §3
Assay [5] has as its system F. verticillioides VKM F-670. In kind it is cell-based, Fusarium verticillioides. To be noted: spores in half-strength potato dextrose broth, peptide 5–300 µM, 48 h, absorbance 595 nm, triplicate, mean ± SD; for IC50: read-out: IC50 against F. verticillioides. Here is the method:
as §2, §3

Another assay concerns F. oxysporum VKM F-137. The class given is cell-based, Fusarium oxysporum. To be noted: spores in half-strength potato dextrose broth, peptide 5–300 µM, 48 h, absorbance 595 nm, triplicate, mean ± SD; for IC50: read-out: IC50 against F. oxysporum. Here is the method: as §2, §3
Another assay relates to C. tropicalis VKM Y-2771. In kind it is cell-based, Candida tropicalis. To be noted: YPD-P medium, peptide 0.5–300 µM, 30 °C, 24 h, absorbance 594 nm, triplicate, mean ± SD; read-out: IC50 against C. tropicalis.
Excerpt: as §1

In assay [6] the test system is Clavibacter michiganensis subsp. michiganensis VKM Ac-1403. The assay can be described thus: Antimicrobial activity assay against bacteria, growth inhibition in microtiter plates. In kind it is cell-based. To be noted: modified YPD-P medium, peptide 0.5–300 µM, 30 °C, 24 h, absorbance 594 nm, triplicate, mean ± SD.
Excerpt: as §1

The subject of assay [7] is Pseudomonas savastanoi pv. savastanoi VKM B-1546. In kind it is cell-based. To be noted: medium without glucose, peptide 0.5–300 µM, 30 °C, 24 h, absorbance 594 nm, triplicate, mean ± SD; for IC50: read-out: IC50 against P. savastanoi.
Excerpt: as §1

For assay [8], the system named is Candida albicans VKM Y-2994. In kind it is cell-based. As to conditions: YPD-P medium, peptide 0.5–300 µM, 30 °C, 24 h, absorbance 594 nm, triplicate, mean ± SD; read-out: IC50 against C. albicans.
Excerpt: as §1

Another assay deals with F. solani VKM F-142. In kind it is cell-based, Fusarium solani. To be noted: spores in half-strength potato dextrose broth, peptide 5–300 µM, 48 h, absorbance 595 nm, triplicate, mean ± SD; for IC50: read-out: IC50 against F. solani. As for the experimental part: as §2, §3
For assay [9], the system named is Cryptococcus neoformans VKM Y-2755. To be noted: read-out: IC50 against C. neoformans; YPD-P medium, peptide 0.5–300 µM, 30 °C, 24 h, absorbance 594 nm, triplicate, mean ± SD.
Assay [10] has as its system Fusarium culmorum VKM F-2303. The assay can be described thus: Antifungal activity assay, spore germination and growth. As to conditions: spores in half-strength potato dextrose broth, peptide 5–300 µM, 48 h, absorbance 595 nm, triplicate, mean ± SD; for IC50: read-out: IC50 against F. culmorum. In kind it is cell-based. As for the experimental part: as §2, §3
For assay [11], the system named is Bipolaris sorokiniana VKM F-4006. The description is as above. The class given is cell-based. To be noted: spores in half-strength potato dextrose broth, peptide 5–300 µM, 48 h, absorbance 595 nm, triplicate, mean ± SD; read-out: IC50 against B. sorokiniana. As for the experimental part: as §2, §3
For assay [12], the system named is Rhizoctonia solani VKM F-895. The assay is described as above. As to conditions: spores in half-strength potato dextrose broth, peptide 5–300 µM, 48 h, absorbance 595 nm, triplicate, mean ± SD; read-out: IC50 against R. solani. In kind it is cell-based. As for the experimental part: as §2, §3

Residues, ends and D or L forms follow the SMILES beside them.

Results on seven molecules are retold here after article PMC12386561, “Broad-Spectrum Antimicrobial Potential of the γ-Core Motif Peptides of Filipendula ulmaria for Practical Applications in Agriculture and Medicine” (International Journal of Molecular Sciences, 2025).

In general, IC50 refers to the midpoint of a concentration-inhibition curve. The molecule `CC[C@H](C)[C@H](NC(=O)[C@H](Cc1c[nH]cn1)NC(=O)[C@H](CO)NC(=O)[C@H](CS)NC(=O)[C@H](CCCCN)NC(=O)CN)C(=O)N[C@@H](CC(C)C)C(=O)N[C@@H](CCCNC(=N)N)C(=O)N[C@@H](CCCNC(=N)N)C(=O)N[C@@H](CS)C(=O)N[C@@H](Cc1ccccc1)C(=O)N[C@@H](CS)C(=O)N[C@H](C(=O)N[C@H](C(=O)N[C@@H](Cc1c[nH]cn1)C(=O)N[C@@H](CS)C(=O)O)[C@@H](C)O)[C@@H](C)O` [FuD0] (H-GKCSHILRRCFCTTHC-OH; N-terminus and C-terminus assumed) yielded a 50% inhibitory concentration (IC50) in assay [1] greater than 300 µM.

As to `CC[C@H](C)[C@H](NC(=O)[C@H](CS)NC(=O)[C@H](C)NC(=O)CN)C(=O)N[C@@H](C)C(=O)N[C@@H](CCCNC(=N)N)C(=O)N[C@@H](CS)C(=O)N[C@@H](CCCNC(=N)N)C(=O)N[C@@H](CC(C)C)C(=O)N[C@@H](CO)C(=O)N[C@@H](CO)C(=O)N[C@@H](CCCNC(=N)N)C(=O)N1CCC[C@H]1C(=O)N[C@@H](CC(N)=O)C(=O)N[C@@H](CC(C)C)C(=O)N[C@@H](CS)C(=O)N[C@@H](CCCCN)C(=O)N[C@@H](CCCNC(=N)N)C(=O)O` [γ48-67FuSN6] (H-GACIARCRLSSRPNLCKR-OH; N-terminus and C-terminus assumed), the IC50 worked out at 154 ± 4.4 µM in [2]; 2.1 µM in assay [3]; 93.8 ± 4.2 µM in [4]; 38 ± 4.6 µM in assay [5]; 15.8 ± 0.6 µM in the assay on F. oxysporum VKM F-137; 1.7 ± 0.6 µM in the assay with C. tropicalis VKM Y-2771. Also, the IC50 in assay [1] was greater than 300 µM; in assay [6] it was 34.7 ± 0.5 µM; in assay [7] it was 97.2 ± 0.2 µM; in assay [8] it was greater than 300 µM; in the assay on F. solani VKM F-142 it was 51.4 ± 0.9 µM; in [9] it was 5.5 ± 0.2 µM. The IC50 was determined as 19.3 ± 1.2 µM in [10] and 46.2 ± 3.2 µM in assay [11].

Take `CC(C)C[C@H](NC(=O)[C@H](CCCCN)NC(=O)[C@H](CS)NC(=O)[C@H](CCCNC(=N)N)NC(=O)CN)C(=O)N[C@@H](CO)C(=O)N[C@@H](CO)C(=O)N[C@@H](CCCNC(=N)N)C(=O)N1CCC[C@H]1C(=O)N[C@@H](CCCCN)C(=O)N[C@@H](CC(C)C)C(=O)N[C@@H](CS)C(=O)N[C@@H](CCCCN)C(=O)N[C@@H](CCCNC(=N)N)C(=O)O` [γ54-69FuSN5] (H-GRCKLSSRPKLCKR-OH; N-terminus and C-terminus assumed): the 50% inhibitory concentration (IC50) in [2], in assay [1], in assay [11] and in [12] was greater than 300 µM each time.

In assay [1], `CC[C@H](C)[C@H](NC(=O)[C@H](Cc1c[nH]cn1)NC(=O)[C@H](CO)NC(=O)[C@H](CS)NC(=O)[C@H](CCCCN)NC(=O)CN)C(=O)N[C@@H](CC(C)C)C(=O)N[C@@H](CCCNC(=N)N)C(=O)N[C@@H](CCCNC(=N)N)C(=O)N[C@@H](CS)C(=O)N[C@@H](CCCNC(=N)N)C(=O)N[C@@H](CS)C(=O)N[C@@H](CO)C(=O)N[C@@H](CCCCN)C(=O)N[C@@H](CO)C(=O)N[C@@H](CS)C(=O)O` [γ59-74FuDEFL1-1] (H-GKCSHILRRCRCSKSC-OH; N-terminus and C-terminus assumed) showed a concentration for half-maximal inhibition (IC50) greater than 300 µM.

The molecule `CC[C@H](C)[C@H](NC(=O)[C@H](Cc1c[nH]cn1)NC(=O)[C@H](CO)NC(=O)[C@H](CS)NC(=O)[C@H](CCCCN)NC(=O)CN)C(=O)N[C@@H](CC(C)C)C(=O)N[C@@H](CCCNC(=N)N)C(=O)N[C@@H](CCCNC(=N)N)C(=O)N[C@@H](CS)C(=O)N[C@@H](CCC(N)=O)C(=O)N[C@@H](CS)C(=O)N[C@@H](CC(C)C)C(=O)N[C@@H](CCCCN)C(=O)N[C@@H](CO)C(=O)N[C@@H](CS)C(=O)O` [γ61-76FuDEFL1-7] (H-GKCSHILRRCQCLKSC-OH; N-terminus and C-terminus assumed) had a concentration for half-maximal inhibition (IC50) in assay [1] greater than 300 µM.

Consider `CSCC[C@H](NC(=O)[C@H](CC(=O)O)NC(=O)[C@@H](NC(=O)[C@H](Cc1ccc(O)cc1)NC(=O)[C@H](CS)NC(=O)[C@H](CO)NC(=O)CN)[C@@H](C)O)C(=O)N[C@H](C(=O)N[C@H](C(=O)N[C@@H](Cc1c[nH]cn1)C(=O)NCC(=O)N[C@@H](CC(N)=O)C(=O)N[C@@H](CCCNC(=N)N)C(=O)N[C@@H](CC(C)C)C(=O)N[C@@H](CCCCN)C(=O)N[C@@H](CS)C(=O)N1CCC[C@H]1C(=O)O)[C@@H](C)O)[C@@H](C)O` [γ88-104FuSN3] (H-GSCYTDMTTHGNRLKCP-OH; N-terminus and C-terminus assumed), for which, in assay [5], the “IC50 against F. verticillioides” value is reported as “very low activity”. Moreover, the “IC50 against F. oxysporum” value in the assay with F. oxysporum VKM F-137 was “inactive”. In addition, the 50% inhibitory concentration (IC50) (in the assay on F. oxysporum VKM F-137; in assay [1]; in assay [6]; in assay [7]; in assay [8]; in the assay with F. solani VKM F-142) was greater than 300 µM in each case. Besides, the IC50 in assay [10] was greater than 300 µM. Further, the “IC50 against P. carotovorum” value in [1] is on record as “failed to inhibit the growth”. Besides, the “IC50 against C. michiganensis” value in assay [6] is listed as “failed to inhibit the growth”. Further, the “IC50 against P. savastanoi” value in assay [7] is “failed to inhibit the growth”. The “IC50 against F. solani” value with F. solani VKM F-142 was “inactive”. In [10], the “IC50 against F. culmorum” value is “inactive”.

On to `CC(C)C[C@H](NC(=O)CN)C(=O)N[C@@H](CS)C(=O)N[C@@H](CCCCN)C(=O)N[C@@H](Cc1ccc(O)cc1)C(=O)N[C@@H](CCCNC(=N)N)C(=O)N[C@@H](CS)C(=O)N[C@@H](CO)C(=O)N[C@@H](CC(C)C)C(=O)N[C@@H](Cc1c[nH]cn1)C(=O)N[C@@H](CO)C(=O)N[C@@H](CCCNC(=N)N)C(=O)N1CCC[C@H]1C(=O)N[C@@H](CC(N)=O)C(=O)N[C@H](C(=O)N[C@@H](CS)C(=O)N[C@@H](Cc1ccccc1)C(=O)N[C@@H](CCCNC(=N)N)C(=O)O)C(C)C` [γ89-106SlSN9, reference compound] (H-GLCKYRCSLHSRPNVCFR-OH), for which the IC50 turned out to be 118 ± 12 µM in assay [2]; 3.3 ± 0.2 µM in assay [3]; 93.6 ± 5.2 µM in assay [4]; 32.3 ± 6.5 µM in assay [5]; 34.1 ± 1 µM with F. oxysporum VKM F-137; 6.1 ± 0.1 µM in the assay on C. tropicalis VKM Y-2771. Also, the 50% inhibitory concentration (IC50) was determined as 41.9 ± 0.5 µM in assay [6]; 127.6 ± 0.9 µM in assay [7]; 214 ± 47.1 µM in [8]; 50.5 ± 1.4 µM with F. solani VKM F-142; 6.3 ± 3.8 µM in assay [9]; 23.1 ± 4.5 µM in [10]. Also, the half-maximal inhibitory concentration (IC50) in assay [11] amounted to 55.1 ± 7 µM; in [12], 130 ± 2.9 µM.
